Experimental data as given in ChEMBL document CHEMBL1201862, “PubChem BioAssay data set” (2004).
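Briefly, cells in 96-well plates were exposed to five compound concentrations for 48 h, and endpoints were estimated by linear interpolation. GI50 is the concentration that inhibits growth by half.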 Activity calls are given as the source filed them. No stated cut-off is given here; in the data, active = GI50 up to about 1.1 µM and inactive = higher.

Key:
Experiment in all cases: NCI anticancer screen, dose series, 48 h
[1] = test system: HOP-18
[2] = test system: LXFL 529
[3] = test system: DMS-114
[4] = test system: SNB-78
[5] = test system: DMS-273
[6] = test system: RXF 631
[7] = test system: DLD-1
[8] = test system: XF498

Measured: GI50

COc1ccc(C(=O)CC(=O)C(=O)Nc2ccc(C)c(C)c2)cc1
inactive: [1] > 70.8 µM | [2] > 64.9 µM | [3] 22.8 µM | [4] > 100 µM | [5] 40 µM | [6] > 68.2 µM | [7] 61.8 µM

O/N=C1/C(=C/c2ccc(Cl)cc2)CCCC1C(NO)c1ccc(Cl)cc1 (configuration not stated)
inactive: [1] 20.3 µM | [2] 25.3 µM | [3] 24.5 µM | [4] 21.9 µM | [5] 17.8 µM | [6] 18.1 µM | [7] 26.5 µM | [8] 22.5 µM

CCCCCCC(=O)CC(=O)C(=O)Nc1ccccc1C
inactive: [1] > 100 µM | [2] > 100 µM | [3] > 69.7 µM | [4] > 100 µM | [5] > 100 µM | [6] > 100 µM | [7] > 67.5 µM | [8] > 100 µM

COc1ccc(-c2c(C3=NCCN3)nnn2-c2ccccc2)cc1
inactive: [1] > 100 µM | [2] > 100 µM | [3] > 100 µM | [4] > 100 µM | [5] > 100 µM | [7] > 100 µM | [8] > 100 µM

CCOc1ccccc1/N=N/c1c(-c2ccccc2)nn(C(=O)CC(=O)Nc2cccc(C)c2)c1-c1ccccc1
inactive: [1] > 100 µM | [2] > 100 µM | [3] 44.8 µM | [4] > 100 µM | [5] > 100 µM | [6] 26.2 µM | [7] 62.8 µM | [8] > 100 µM

CN(C)/C(=N/C(=S)Nc1ccccc1)SCc1ccccc1
inactive: [1] > 100 µM | [2] 2.38 µM | [3] 9.93 µM | [4] > 100 µM | [5] 51.6 µM | [6] 88.1 µM | [7] 44.3 µM | [8] 24.4 µM

COc1ccc2c(c1)[n+]([O-])c(-c1ccccc1Cl)c(N)[n+]2[O-]
inactive: [1] > 100 µM | [2] 55.3 µM | [3] 32.8 µM | [4] > 100 µM | [5] 55.6 µM | [6] 37.4 µM | [7] > 100 µM

Nc1c(-c2ccc(Br)cc2)[n+]([O-])c2ccccc2[n+]1[O-]
inactive: [1] > 100 µM | [2] > 100 µM | [3] 50.9 µM | [4] > 100 µM | [5] > 100 µM | [6] > 100 µM | [7] > 100 µM

CSC1=Nc2ccccc2N=C(c2ccccc2)C1
inactive: [1] > 100 µM | [2] 70 µM | [3] 21.5 µM | [4] > 100 µM | [5] 39.6 µM | [6] 46.7 µM | [7] 29.4 µM | [8] 39.4 µM

CC(C)C(NCc1c2ccccc2nc2ccccc12)C(=O)O (configuration not stated)
inactive: [2] 39 µM | [3] 27.2 µM | [5] 32.6 µM | [6] 19.9 µM | [7] 23.8 µM | [8] 21.1 µM

O=[N+]([O-])c1ccc(-n2nnc(C3=NCCN3)c2-c2ccc(Cl)cc2)cc1
inactive: [1] > 100 µM | [2] > 100 µM | [3] 77.1 µM | [4] > 100 µM | [5] > 100 µM | [7] > 100 µM | [8] > 100 µM

O=[N+]([O-])c1cccc(C2N3CCCCC3[C@@H]3c4[nH]c5ccccc5c4CCN23)c1 (some centres not stated)
inactive: [1] 54.6 µM | [2] 19 µM | [3] 6.9 µM | [4] 9.79 µM | [5] 11.8 µM | [7] 12.3 µM | [8] 14 µM

c1ccc(-c2nnc(-c3nn(-c4ccccc4)c4nc5ccccc5nc34)o2)cc1
inactive: [1] 20 µM | [2] 12.3 µM | [3] 28.8 µM | [4] > 100 µM | [5] 92 µM | [7] 25.1 µM | [8] 22.1 µM

COC1(OC)C2(Cl)C3=CCCC=C3C1(Cl)C(Cl)=C2Cl
inactive: [2] 25.6 µM | [3] 18.1 µM | [4] 31.8 µM | [5] 13.3 µM | [6] 13.2 µM | [7] 28.9 µM | [8] 19.2 µM
